Data published in patent US20130158049A1, “7-AZAINDOLE INHIBITORS OF CRAC” (Hoffmann-La Roche Inc., priority 2011, published 2013).

system: Jurkat IL-2 Production; experiment: Jurkat IL-2 Production Assay; assay type: cell-based; settings: Homo sapiens; Jurkat cell (ATCC); PHA 5 μg/mL with 1% FBS, or PMA/Ionomycin with 30% FBS (table does not say which); incubation 18 h~20 h
Description: Jurkat IL-2 Production Assay
Cell: Jurkat cell (ATCC) was grown in RPMI 1640 with 10% FBS and 1% penicillin/streptomycin. The cell density was kept at 1.2˜1.8×10^6/mL in culture flask before seeding into culture plate, and the cell density in the plate was 0.5×10^6/[…]/well.
Culture media: RPMI 1640 with 1% FBS or 30% FBS for high serum assay.
Test compound: serial dilution was done in 100% DMSO, and intermediate dilution was done with RPMI 1640 medium with 1% FBS. The DMSO final concentration in culture well was 0.25%.
Stimulant: PHA (Sigma#L9017-10MG) was used for the assay with 1% FBS in culture medium, and added after 10 minutes exposure of cell to compound/DMSO. The PHA final concentration in culture well was 5 μg/mL. PMA (Sigma# P-8139 5MG)/Ionomycin (Sigma# I0634-5MG) was used for the assay with 30% FBS in culture medium, and added at same time point as the 1% FBS culture assay. The final concentration of PMA was 50 ng/mL, and Ionomycin final concentration was 500 ng/mL.
Incubation: at 37° C. with 5% CO2 and 95% humidity for 18 h˜20 h.
IC50: IC50 was calculated with the data analysis software XLfit4, General Pharmacology model 251.

IC50 [nM] | SMILES
428 | CCn1nc(-c2cnccn2)cc1-c1cnc2[nH]c(-c3cnccc3C)cc2c1 [Example 26, 5-(2-Ethyl-5-pyrazin-2-yl-2H-pyrazol-3-yl)-2-(4-methyl-pyridin-3-yl)-1H-pyrrolo[2,3-b]pyridine]
54 | CCn1nc(C(F)(F)F)cc1-c1cnc2[nH]c(-c3c(F)cccc3F)cc2c1 [Example 7, 2-(2,6-Difluoro-phenyl)-5-(2-ethyl-5-trifluoromethyl-2H-pyrazol-3-yl)-1H-pyrrolo[2,3-b]pyridine]
163 | CCn1nc(-c2cccnc2)cc1-c1cnc2[nH]c(-c3ccncc3C)cc2c1 [Example 22, 5-(1-Ethyl-3-(pyridin-3-yl)-1H-pyrazol-5-yl)-2-(3-methylpyridin-4-yl)-1H-pyrrolo[2,3-b]pyridine]
15 | CCc1sc(-c2cccnc2)nc1-c1cnc2[nH]c(-c3c(F)cccc3F)cc2c1 [Example 13, 2-(2,6-Difluoro-phenyl)-5-(5-ethyl-2-pyridin-3-yl-thiazol-4-yl)-1H-pyrrolo[2,3-b]pyridine]
158 | CCn1nc(-c2cnccn2)cc1-c1cnc2[nH]c(-c3ccncc3C)cc2c1 [Example 21, 5-(2-Ethyl-5-pyrazin-2-yl-2H-pyrazol-3-yl)-2-(3-methyl-pyridin-4-yl)-1H-pyrrolo[2,3-b]pyridine]
997 | Cc1cc(C(=O)NCCO)ncc1-c1cnc2[nH]c(-c3c(F)cccc3F)cc2c1 [Example 12, 5-[2-(2,6-Difluoro-phenyl)-1H-pyrrolo[2,3-b]pyridin-5-yl]-4-methyl-pyridine-2-carboxylic acid (2-hydroxy-ethyl)-amide]
242 | CNC(=O)c1cc(C)c(-c2cnc3[nH]c(-c4c(F)cccc4F)cc3c2)cn1 [Example 11, 5-[2-(2,6-Difluoro-phenyl)-1H-pyrrolo[2,3-b]pyridin-5-yl]-4-methyl-pyridine-2-carboxylic acid methylamide]
124 | Cc1cc(S(=O)(=O)N(C)C)ccc1-c1cnc2[nH]c(-c3c(F)cccc3F)cc2c1 [Example 3, 4-[2-(2,6-Difluoro-phenyl)-1H-pyrrolo[2,3-b]pyridin-5-yl]-3,N,N-trimethyl-benzenesulfonamide]
72 | Cc1cc(S(C)(=O)=O)ncc1-c1cnc2[nH]c(-c3c(F)cccc3Cl)cc2c1 [Example 20, 2-(2-Chloro-6-fluoro-phenyl)-5-(6-methanesulfonyl-4-methyl-pyridin-3-yl)-1H-pyrrolo[2,3-b]pyridine]
588 | COC(=O)c1ccc(-c2cnc3[nH]c(-c4c(F)cccc4F)cc3c2)c(C)c1 [Example 1, 4-[2-(2,6-Difluoro-phenyl)-1H-pyrrolo[2,3-b]pyridin-5-yl]-3-methyl-benzoic acid methyl ester]
145 | CCn1nc(C(F)(F)F)cc1-c1cnc2[nH]c(-c3ccncc3C)cc2c1 [Example 23, 5-(1-ethyl-3-(trifluoromethyl)-1H-pyrazol-5-yl)-2-(3-methylpyridin-4-yl)-1H-pyrrolo[2,3-b]pyridine]
150 | COc1ccc(-c2cnc3[nH]c(-c4c(F)cccc4F)cc3c2)c(OC)c1 [Example 2, 2-(2,6-Difluoro-phenyl)-5-(2,4-dimethoxy-phenyl)-1H-pyrrolo[2,3-b]pyridine]
99 | Cc1cc(S(=O)(=O)N(C)C)ccc1-c1cnc2[nH]c(-c3c(F)cccc3Cl)cc2c1 [Example 16, 4-[2-(2-Chloro-6-fluoro-phenyl)-1H-pyrrolo[2,3-b]pyridin-5-yl]-3,N,N-trimethyl-benzenesulfonamide]
248 | Cc1cc(S(C)(=O)=O)ncc1-c1cnc2[nH]c(-c3ccncc3C)cc2c1 [Example 24, 5-(4-Methyl-6-(methylsulfonyl)pyridin-3-yl)-2-(3-methylpyridin-4-yl)-1H-pyrrolo[2,3-b]pyridine]
90 | Cc1sc(-c2cccnc2)nc1-c1cnc2[nH]c(-c3c(F)cccc3F)cc2c1 [Example 5, 2-(2,6-Difluoro-phenyl)-5-(5-methyl-2-pyridin-3-yl-thiazol-4-yl)-1H-pyrrolo[2,3-b]pyridine]
39 | Cc1sc(-c2cnccn2)nc1-c1cnc2[nH]c(-c3c(F)cccc3Cl)cc2c1 [Example 18, 2-(2-Chloro-6-fluoro-phenyl)-5-(5-methyl-2-pyrazin-2-yl-thiazol-4-yl)-1H-pyrrolo[2,3-b]pyridine]

IC50 [nM] | SMILES
438 | Cc1cc(S(C)(=O)=O)ncc1-c1cnc2[nH]c(-c3cnccc3C)cc2c1 [Example 27, 5-(4-Methyl-6-(methylsulfonyl)pyridin-3-yl)-2-(4-methylpyridin-3-yl)-1H-pyrrolo[2,3-b]pyridine]
275 | Cc1cc(S(C)(=O)=O)ncc1-c1cnc2[nH]c(-c3cnccc3Cl)cc2c1 [Example 29, 2-(4-Chloropyridin-3-yl)-5-(4-methyl-6-(methylsulfonyl)pyridin-3-yl)-1H-pyrrolo[2,3-b]pyridine]
108 | CCn1nc(-c2cccnc2)cc1-c1cnc2[nH]c(C3CCCCC3)cc2c1 [Example 32, 2-Cyclohexyl-5-(1-ethyl-3-(pyridin-3-yl)-1H-pyrazol-5-yl)-1H-pyrrolo[2,3-b]pyridine]
53 | Cn1nc(C(F)(F)F)cc1-c1cnc2[nH]c(-c3c(F)cccc3Cl)cc2c1 [Example 15, 2-(2-Chloro-6-fluoro-phenyl)-5-(2-methyl-5-trifluoromethyl-2H-pyrazol-3-yl)-1H-pyrrolo[2,3-b]pyridine]
107 | Cc1cc(S(C)(=O)=O)ncc1-c1cnc2[nH]c(C3CCCCC3)cc2c1 [Example 31, 2-cyclohexyl-5-(4-methyl-6-(methylsulfonyl)pyridin-3-yl)-1H-pyrrolo[2,3-b]pyridine]
113 | Cn1nc(C(F)(F)F)cc1-c1cnc2[nH]c(-c3c(F)cccc3F)cc2c1 [Example 6, 2-(2,6-Difluoro-phenyl)-5-(2-methyl-5-trifluoromethyl-2H-pyrazol-3-yl)-1H-pyrrolo[2,3-b]pyridine]
134 | CCn1nc(-c2cccnc2)cc1-c1cnc2[nH]c(-c3c(F)cccc3F)cc2c1 [Example 4, 2-(2,6-Difluoro-phenyl)-5-(2-ethyl-5-pyridin-3-yl-2H-pyrazol-3-yl)-1H-pyrrolo[2,3-b]pyridine]
15 | CCn1nc(-c2cnccn2)cc1-c1cnc2[nH]c(-c3c(F)cccc3Cl)cc2c1 [Example 17, 2-(2-Chloro-6-fluoro-phenyl)-5-(2-ethyl-5-pyrazin-2-yl-2H-pyrazol-3-yl)-1H-pyrrolo[2,3-b]pyridine]
111 | CCn1nc(-c2cnccn2)cc1-c1cnc2[nH]c(C3CCCCC3)cc2c1 [Example 33, 2-Cyclohexyl-5-(1-ethyl-3-(pyrazin-2-yl)-1H-pyrazol-5-yl)-1H-pyrrolo[2,3-b]pyridine]
36 | Cc1sc(-c2cnccn2)nc1-c1cnc2[nH]c(-c3c(F)cccc3F)cc2c1 [Example 14, 2-(2,6-Difluoro-phenyl)-5-(5-methyl-2-pyrazin-2-yl-thiazol-4-yl)-1H-pyrrolo[2,3-b]pyridine]
185 | CCn1nc(-c2cccnc2)cc1-c1cnc2[nH]c(-c3cnccc3Cl)cc2c1 [Example 28, 2-(4-chloropyridin-3-yl)-5-(1-ethyl-3-(pyridin-3-yl)-1H-pyrazol-5-yl)-1H-pyrrolo[2,3-b]pyridine]
441 | CCn1nc(-c2cccnc2)cc1-c1cnc2[nH]c(-c3c(C)noc3C)cc2c1 [Example 30, 2-(3,5-Dimethyl-isoxazol-4-yl)-5-(2-ethyl-5-pyridin-3-yl-2H-pyrazol-3-yl)-1H-pyrrolo[2,3-b]pyridine]
35 | COc1cc(C#N)ccc1-c1cnc2[nH]c(-c3c(F)cccc3Cl)cc2c1 [Example 19, 4-[2-(2-Chloro-6-fluoro-phenyl)-1H-pyrrolo[2,3-b]pyridin-5-yl]-3-methoxy-benzonitrile]
56 | CCn1nc(-c2cccnc2)nc1-c1cnc2[nH]c(-c3c(F)cccc3F)cc2c1 [Example 9, 2-(2,6-Difluoro-phenyl)-5-(2-ethyl-5-pyridin-3-yl-2H-[1,2,4]-triazol-3-yl)-1H-pyrrolo[2,3-b]pyridine]
102 | Cc1sc(-c2ncco2)nc1-c1cnc2[nH]c(-c3c(F)cccc3F)cc2c1 [Example 8, 2-(2,6-Difluoro-phenyl)-5-(5-methyl-2-oxazol-2-yl-thiazol-4-yl)-1H-pyrrolo[2,3-b]pyridine]
106 | Cn1nc(-c2cccnc2)nc1-c1cnc2[nH]c(-c3c(F)cccc3F)cc2c1 [Example 10, 2-(2,6-Difluoro-phenyl)-5-(2-methyl-5-pyridin-3-yl-2H-[1,2,4]triazol-3-yl)-1H-pyrrolo[2,3-b]pyridine]
